Reference: patent US20090099169A1, “Benzofuran Compounds As EP1 Receptor Antagonists” (GLAXO GROUP LIMITED, priority 2006, published 2009)
Counter-ions that a name gives are not always drawn.

Target: T1, human EP1 receptor (Homo sapiens, UniProt P34995)
T1 sequence (P34995 1-402): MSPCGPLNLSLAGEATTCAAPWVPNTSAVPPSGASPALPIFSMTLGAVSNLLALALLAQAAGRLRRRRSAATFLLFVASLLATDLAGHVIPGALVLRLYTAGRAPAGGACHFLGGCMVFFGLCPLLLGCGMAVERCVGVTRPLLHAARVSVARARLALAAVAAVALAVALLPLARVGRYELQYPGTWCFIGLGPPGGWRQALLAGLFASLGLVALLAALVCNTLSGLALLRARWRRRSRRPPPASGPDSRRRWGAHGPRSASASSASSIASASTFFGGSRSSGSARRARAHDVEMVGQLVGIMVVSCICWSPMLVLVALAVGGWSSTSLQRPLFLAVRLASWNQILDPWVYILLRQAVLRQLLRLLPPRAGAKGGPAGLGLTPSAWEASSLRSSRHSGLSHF
Experiment: human EP1 calcium mobilisation assay
Type: cell-based
Set-up: expressed in transfected cells
Settings: CHO-K1 cells, antagonism of PGE2; averages of a number of experiments; read-out: functional pKi value (human EP1 calcium mobilisation assay) (converted)
Description: Briefly, the antagonist properties of compounds are assessed by their ability to inhibit the mobilisation of intracellular calcium ([Ca^2+]i) in response to activation of EP1 or EP3 receptors by the natural agonist hormone prostaglandin E2 (PGE2). Increasing concentrations of antagonist reduce the amount of calcium that a given concentration of PGE2 can mobilise. The net effect is to displace the PGE2 concentration-effect curve to higher concentrations of PGE2. The amount of calcium produced is assessed using a calcium-sensitive fluorescent dye such as Fluo-4, AM and a suitable instrument such as a Fluorimetric Imaging Plate Reader (FLIPR). Increasing amounts of [Ca^2+]i produced by receptor activation increase the amount of fluorescence produced by the dye and give rise to an increasing signal. The signal may be detected using the FLIPR instrument and the data generated may be analysed with suitable curve-fitting software.
The human EP1 or EP3 calcium mobilisation assay (hereafter referred to as ‘the calcium assay’) utilises Chinese hamster ovary-K1 (CHO-K1) cells into which a stable (PCIN; BioTechniques 20 (1996): 102-110) vector containing either EP1 or EP3 cDNA has previously been transfected. Cells are cultured in suitable flasks containing culture medium such as DMEM:F-12 supplemented with 10% v/v foetal calf serum, 2 mM L-glutamine, 0.25 mg/ml geneticin, 100 μM flurbiprofen and 10 μg/ml puromycin.
For assay, cells are harvested using a proprietary reagent that dislodges cells such as Versene. Cells are re-suspended in a suitable quantity of fresh culture media for introduction into a 384-well plate. Following incubation for 24 hours at 37° C. the culture media is replaced with a medium containing Fluo-4 and the detergent pluronic acid, and a further incubation takes place. Concentrations of compounds are then added to the plate in order to construct concentration-effect curves. This may be performed on the FLIPR in order to assess the agonist properties of the compounds. Concentrations of PGE2 are then added to the plate in order to assess the antagonist properties of the compounds.
The data so generated may be analysed by means of a computerised curve-fitting routine. The concentration of compound that elicits a half-maximal inhibition of the calcium mobilisation induced by PGE2 (pIC50) may then be estimated.

Row | SMILES | Ki
1 | CC(C)c1cc2cc(Cl)cc(Cc3ccc(-c4nc5cc(CN(C)C)ccc5[nH]4)o3)c2o1 [Example 11, 1-[2-(5-{[5-Chloro-2-(1-methylethyl)-1-benzofuran-7-yl]methyl}-2-furanyl)-1H-benzimidazol-5-yl]-N,N-dimethylmethanamine Hydrochloride] | ≤ 316 nM
2 | CC(C)c1cc2cc(Cl)cc(Cc3ccc(-c4nc5cc(CN6CCCC6)ccc5[nH]4)o3)c2o1 [Example 12, 2-(5-{[5-Chloro-2-(1-methylethyl)-1-benzofuran-7-yl]methyl}-2-furanyl)-5-(1-pyrrolidinylmethyl)-1H-benzimidazole Hydrochloride] | ≤ 316 nM
3 | CC(C)c1cc2cc(Cl)cc(Cc3ccc(-c4nc5cc(CN6CCN(C)CC6)ccc5[nH]4)o3)c2o1 [Example 13, 2-(5-{[5-Chloro-2-(1-methylethyl)-1-benzofuran-7-yl]methyl}-2-furanyl)-5-[(4-methyl-1-piperazinyl)methyl]-1H-benzimidazole Hydrochloride] | ≤ 316 nM
4 | CC(C)c1cc2cc(Cl)cc(Cc3cccc(C(N)=O)n3)c2o1 [Example 40, 6-{[5-Chloro-2-(1-methylethyl)-1-benzofuran-7-yl]methyl}-2-pyridinecarboxamide] | ≤ 316 nM
5 | CC(C)c1cc2cc(Cl)cc(Cc3ccc(C(=O)NN4CCOCC4)o3)c2o1 [Example 42, 5-{[5-Chloro-2-(1-methylethyl)-1-benzofuran-7-yl]methyl}-N-4-morpholinyl-2-furancarboxamide] | ≤ 316 nM
6 | CC(C)c1cc2cc(Cl)cc(Cc3ccc(C(=O)NN4CCCCC4)o3)c2o1 [Example 43, 5-{[5-Chloro-2-(1-methylethyl)-1-benzofuran-7-yl]methyl}-N-1-piperidinyl-2-furancarboxamide] | ≤ 316 nM
7 | CC(C)c1cc2cc(Cl)cc(Cc3ccc(C(=O)Nc4ccc(CN5CCOCC5)cc4)o3)c2o1 [Example 54, 5-{[5-Chloro-2-(1-methylethyl)-1-benzofuran-7-yl]methyl}-N-[4-(4-morpholinylmethyl)phenyl]-2-furancarboxamide Hydrochloride] | ≤ 316 nM
8 | CC(C)c1cc2cc(Cl)cc(Cc3ccc(C(=O)NCCN(C)C)o3)c2o1 [Example 58, 5-{[5-Chloro-2-(1-methylethyl)-1-benzofuran-7-yl]methyl}-N-[2-(dimethylamino)ethyl]-2-furancarboxamidehydrochloride] | 1000 to 1580 nM
9 | Cc1cc(NC(=O)[C@H]2CCCO2)nn1Cc1cc(C#N)cc2cc(C(C)C)oc12 [Example 69, (2R)—N-(1-{[5-Cyano-2-(1-methylethyl)-1-benzofuran-7-yl]methyl}-5-methyl-1H-pyrazol-3-yl)tetrahydro-2-furancarboxamide] | ≤ 316 nM
10 | Cc1cc(NC(=O)C2CCOCC2)nn1Cc1cc(C#N)cc2cc(C(C)C)oc12 [Example 70, N-(1-{[5-Cyano-2-(1-methylethyl)-1-benzofuran-7-yl]methyl}-5-methyl-1H-pyrazol-3-yl)tetrahydro-2H-pyran-4-carboxamide] | ≤ 316 nM

The next lines start with the values.

Row | Ki | SMILES
11 | ≤ 316 nM | Cc1cc(C(=O)O)nn1Cc1cccc2cc(C(C)C)oc12 [Example 20, 5-Methyl-1-{[2-(1-methylethyl)-1-benzofuran-7-yl]methyl}-1H-pyrazole-3-carboxylic Acid]
12 | ≤ 316 nM | Cc1cc(C(=O)NN2CCOCC2)nn1Cc1cc(Cl)cc2cc(C3CC3)oc12 [Example 31, 1-[(5-Chloro-2-cyclopropyl-1-benzofuran-7-yl)methyl]-5-methyl-N-4-morpholinyl-1H-pyrazole-3-carboxamide]
13 | 1000 to 1580 nM | Cc1cc(C(=O)NC2CCNCC2)nn1Cc1cc(Cl)cc2cc(C(C)C)oc12 [Example 33, 1-{[5-chloro-2-(1-methylethyl)-1-benzofuran-7-yl]methyl}-5-methyl-N-4-piperidinyl-1H-pyrazole-3-carboxamide Hydrochloride]
14 | 1000 to 1580 nM | CCN1CCC(CNC(=O)c2cc(C)n(Cc3cc(Cl)cc4cc(C(C)C)oc34)n2)CC1 [Example 36, 1-{[5-chloro-2-(1-methylethyl)-1-beenzofuran-7-yl]methyl}-N-[(1-ethyl-4-piperidinyl)methyl]-5-methyl-1H-pyrazole-3-carboxamidehydrochloride]
15 | ≤ 316 nM | Cc1cc(C(N)=O)nn1Cc1cc(C#N)cc2cc(C(C)C)oc12 [Example 41, 1-{[5-Cyano-2-(1-methylethyl)-1-benzofuran-7-yl]methyl}-5-methyl-1H-pyrazole-3-carboxamide]
16 | ≤ 316 nM | Cc1cc(C(=O)NN2CCOCC2)nn1Cc1cc(C#N)cc2cc(C(C)C)oc12 [Example 45, 1-{[5-Cyano-2-(1-methylethyl)-1-benzofuran-7-yl]methyl}-5-methyl-N-4-morpholinyl-1H-pyrazole-3-carboxamide]
17 | ≤ 316 nM | Cc1cc(C(=O)NCC2CCOCC2)nn1Cc1cc(Cl)cc2cc(C(C)C)oc12 [Example 61, 1-{[5-Chloro-2-(1-methylethyl)-1-benzofuran-7-yl]methyl}-5-methyl-N-(tetrahydro-2H-pyran-4-ylmethyl)-1H-pyrazole-3-carboxamide]

Target: T1, human EP1 receptor
Experiment: Binding assay for the human prostanoid EP1 receptor (radioligand competition)
Set-up: expressed in transfected cells; host or cells: CHO-K1 (membranes)
Settings: CHO-K1 membranes; [3H]-PGE2 for Examples 1-17, 19, 33, 34, 60 and 61, 3-{2-[5-Bromo-2-(2,4-difluorobenzyloxy)-phenyl]-5-methyl-pyrrol-1-yl}-6-[3H3-methoxy]methoxy-benzoic acid for the remaining; averages of a number of experiments; read-out: pIC50 value (binding assay for the human prostanoid EP1 receptor) (converted)
Description: Compound potencies are determined using a radioligand binding assay. In this assay compound potencies are determined from their ability to compete with tritiated prostaglandin E2 ([^3H]-PGE2) for binding to the human EP1 receptor.
This assay utilises Chinese hamster ovary-K1 (CHO-K1) cells into which a stable vector containing the EP1 cDNA has previously been transfected. Cells are cultured in suitable flasks containing culture medium such as DMEM:F-12 supplemented with 10% v/v foetal calf serum, 2 mM L-glutamine, 0.25 mg/ml geneticin, 10 μg/ml puromycin and 10 μM indomethacin.
Cells are detached from the culture flasks by incubation in calcium and magnesium free phosphate buffered saline containing 1 mM disodium ethylenediaminetetraacetic acid (Na2EDTA) and […] indomethacin for 5 min. The cells are isolated by centrifugation at 250×g for 5mins and suspended in an ice cold buffer such as 50 mM Tris, 1 mM Na2EDTA, 140 mM NaCl, 10 μM indomethacin (pH 7.4). The cells are homogenised using a Polytron tissue disrupter (2×10 s burst at full setting), centrifuged at 48,000×g for 20mins and the pellet containing the membrane fraction is washed (optional) three times by suspension and centrifugation at 48,000×g for 20mins. The final membrane pellet is suspended in an assay buffer such as 10 mM 2-[N-morpholino]ethanesulphonic acid, 1 mM Na2EDTA, 10 mM MgCl2 (pH 6). Aliquots are frozen at −80° C. until required.
(§1) For the binding assay the cell membranes, competing compounds and [^3H]-PGE2 (3 nM final assay concentration) are incubated in a final volume of 100 μl for 30 min at 30° C. All reagents are prepared in assay buffer. Reactions are terminated by rapid vacuum filtration over GF/B filters using a Brandell cell harvester. The filters are washed with ice cold assay buffer, dried and the radioactivity retained on the filters is measured by liquid scintillation counting in Packard TopCount scintillation counter.
The data are analysed using non linear curve fitting techniques to determine the concentration of compound producing 50% inhibition of specific binding (IC50).
Alternatively a similar assay may be carried out using 3-{2-[5-Bromo-2-(2,4-difluoro-benzyloxy)-phenyl]-5-methyl-pyrrol-1-yl}-6-[^3H3-methoxy]methoxy-benzoic acid instead of [^3H]-PGE2.
For the binding assay using 3-{2-[5-Bromo-2-(2,4-difluoro-benzyloxy)-phenyl]-5-methyl-pyrrol-1-yl}-6-[^3H3-methoxy]methoxy-benzoic acid instead of [^3H]-PGE2 the assay is carried out using a similar procedure to that described above using [^3H]-PGE2 with the following changes:
as §1, with “The” for “For the binding assay the”, “3-{2-[5-Bromo-2-(2,4-difluoro-benzyloxy)-phenyl]-5-methyl-pyrrol-1-yl}-6-[^3H3-methoxy]methoxy-benzoic acid (0.2” for “[^3H]-PGE2 (3”, “400” for “100”, “45” for “30”, “37°” for “30°”, “water at ambient temperature,” for “ice cold assay buffer,”
The preparation of 3-{2-[5-Bromo-2-(2,4-difluoro-benzyloxy)-phenyl]-5-methyl-pyrrol-1-yl}-6-methoxy-benzoic acid is described in WO 03/101959 and in Hall et al, Biorg. Med. Chem. Lett., 2007, 17, 916-920. The tritiated version may be prepared via conventional routes, e.g. from 3-{2-[5-bromo-2-(2,4-difluoro-benzyloxy)-phenyl]-5-methyl-pyrrol-1-yl}-6-hydroxy-benzoic acid or 3-{2-[5-bromo-2-(2,4-difluoro-benzyloxy)-phenyl]-5-methyl-pyrrol-1-yl}-6-hydroxy-benzoic acid methyl ester.

Row | IC50 | SMILES
18 | ≤ 100 nM | Cc1cc(C(=O)O)nn1Cc1cc(Cl)cc2cc(C3CC3)oc12 [Example 23, Sodium 1-[(5-chloro-2-cyclopropyl-1-benzofuran-7-yl)methyl]-5-methyl-1H-pyrazole-3-carboxylate]
